Test results: US20220305121A1, “N-ARYL SULFONAMIDE DERIVATIVES AS VACCINE ADJUVANT” (The Regents of the University of California, priority 2019, published 2022)
“Also recorded” adds a separate entry of the source.

What was measured:
Assay type in all cases: cell-based
[1] = system: ISRE; test: Measurement of ISRE activity in ISRE-bla THP-1 cells (FRET, IFN-α as primary stimulus); conditions: for activity at 5 µM: Homo sapiens, THP-1, read-out: ISRE % Activation; for ISRE activity (in words): with IFN-α
Experimental: (§1) ISRE-bla THP-1 cells were plated in 96-well plates at 5×10^4 cells/well in 50 μl RPMI supplemented with 10% dialyzed FBS (Atlanta Biologicals, Inc., GA), 0.1 mM nonessential amino acids, 1 mM sodium pyruvate, 100 U/mL penicillin and 100 μg/ml streptomycin. Type I IFN-α (R&D Systems, #11200-2) solution was prepared in assay medium at a concentration of 200 U/mL Tested compounds were dissolved in DMSO at 1 mM and were further diluted in the IFN-α solution to a final concentration of 10 μM. 50 μL of this solution was then transferred to the plated cells to obtain a final concentration of IFN-α at 100 U/mL and compound at 5 μM ([…]), The cells were incubated for 16 hours, after which 20 μL of 6×LiveBLAzer™ FRET B/G Substrate (CCF4-AM) mixture (prepared according to the manufacturer's instructions) was added to each well, Plates were incubated at room temperature in the dark for 3 hours. Fluorescence was measured on a Tecan Infinite M200 plate reader at an excitation wavelength of 405 nm, and emission wavelengths of 465 nm and 535 nm. Background values (cell free wells at the same fluorescence wavelength) were subtracted from the raw fluorescence intensity values and the emission ratios were calculated as the ratio of background subtracted fluorescence intensities at 465 nm to background subtracted fluorescence intensities at 535 nm. The ISRE activity values for these compounds were 2-point normalized to yield activity of compound 1+IFN-α as 200% and activity for IFN-α as 100%.
Measurement of ISRE Activity in ISRE-bla THP-1 Cells. ISREbla THP-1 cells were plated in 96-well plates at 5×10^4 cells/well in 50 μL of RPMI supplemented with 10% dialyzed FBS (Atlanta Biologicals, Inc., GA), 0.1 mM nonessential amino acids, 1 mM sodium pyruvate, 100 U/mL penicillin, and 100 μg/mL streptomycin. Type I IFN-α (R&D Systems, no. 11200-2) solution was prepared in assay medium at a concentration of 200 U/mL. Tested compounds were dissolved in DMSO at 1 mM and were further diluted in the IFN-α solution to a final concentration of 10 μM. 50 μL of this solution was then transferred to the plated cells to obtain a final concentration of IFN-α at 100 U/mL and compound at 5 μM ([…]). The cells were incubated for 16 hours, after which 20 μL of 6×LiveBLAzer FRET B/G substrate (CCF4-AM) mixture (prepared according to the manufacturer's instructions) was added to each well. Plates were incubated at room temperature in the dark for 3 hours. Fluorescence was measured on a Tecan Infinite M200 plate reader at an excitation wavelength of 405 nm and emission wavelengths of 465 and 535 nm. Background values (cell free wells at the same fluorescence wavelength) were subtracted from the raw fluorescence intensity values and the emission ratios were calculated as the ratio of background subtracted fluorescence intensities at 465 nm to background subtracted fluorescence intensities at 535 nm. The ISRE activity values for these compounds were two-point normalized to yield activity of compound 1+IFN-α as 200% and activity for IFN-α as 100%.

[2] = system: NF-κB; test: Measurement of NF-κB activation using THP1-Blue NF-κB cells (SEAP reporter, LPS as primary stimulus); conditions: compound 5 μM + LPS, 20 hour incubation; two point normalized: compound 1 + LPS = 200%, LPS = 100%; mean
Experimental: (§2) THP1-Blue™ NF-κB cells were plated in 96-well plates at 10^5 cells/well in 100 μl RPMI supplemented with 10% fetal bovine serum (FBS, Omega Scientific, Inc., Tarzana, Calif.), 100 U/mL penicillin, 100 μg/ml streptomycin (Thermo Fisher Scientific) and Normocin (Invivogen). LPS was prepared in assay medium at a concentration of 20 μg/mL. Tested compounds were dissolved in DMSO at 1 mM as a stock solution and were further diluted in the LPS solution to a final concentration of 10 μM. 100 μL of this solution was then transferred to the plated cells to obtain a final concentration of LPS at 10 μg/mL and compound at 5 μM ([…]). The culture supernatants were harvested after a 20 hour incubation period, SEAP activity in the culture supernatants was determined by a colorimetric assay using QuantiBlue (Invivogen). Plate absorbance was read at 630 nm using a Tecan Infinite M200 plate reader (Männedorf, Switzerland). The SEAP concentration was directly proportional to NF-κB activity, which was 2-point normalized to yield activity of compound 1+LPS as 200% and activity for LPS as 100%.
(§3) Measurement of NF-κB Activation Using THP1-Blue NF-κB Cells. THP1-Blue NF-κB cells were plated in 96-well plates at 10^5 cells/well in 100 μL of RPMI supplemented with 10% fetal bovine serum (FBS, Omega Scientific, Inc., Tarzana, Calif.), 100 U/mL penicillin, 100 μg/mL streptomycin (Thermo Fisher Scientific), and Normocin (Invivogen). LPS was prepared in assay medium at a concentration of 20 μg/mL. Tested compounds were dissolved in DMSO at 1 mM as a stock solution and were further diluted in the LPS solution to a final concentration of 10 μM. 100 μL of this solution was then transferred to the plated cells to obtain a final concentration of LPS at 10 μg/mL and compound at 5 μM ([…]). The culture supernatants were harvested after a 20 hours incubation period. SEAP activity in the culture supernatants was determined by a colorimetric assay using QuantiBlue (Invivogen). Plate absorbance was read at 630 nm using a Tecan Infinite M200 plate reader (Mannedorf, Switzerland). The SEAP concentration was directly proportional to NF-κB activity, which was two-point normalized to yield activity of compound 1+LPS as 200% and activity for LPS as 100%.

[3] = system: NF-κB and ISRE; test: NF-κB and ISRE reporter assays (primary screens), statements in words for both assays; conditions: with LPS or IFN-α as primary stimulus; compared to compound 1
Experimental: as §2, §1, §3
Measurement of ISRE Activity in ISRE-bla THP-1 Cells. […]

[4] = system: THP-1 cells; test: Cell viability assay (MTT); conditions: compound 5 μM, 18 hours incubation; normalized to DMSO as 100%; mean
Experimental: THP-1 cells were plated in 96-well plates (10^5 cells/well) in 100 μL RPMI supplemented with 10% FBS, 100 U/mL penicillin and 100 μg/ml streptomycin. Compounds were dissolved in DMSO at 1 mM stock solution and were further diluted to 10 μM in the assay medium. 100 μL of this solution was added to the cells to obtain a final compound concentration of 5 μM ([…]). After 18 hours incubation, a solution of MTT in assay media (0.5 mg/mL) was added to each well and further incubated for 4 to 6 hours, followed by addition of cell lysis buffer (15% w/v SDS and 0.12% v/v 12N HCl aqueous solution), incubated overnight, and then absorbance measured at 570 nm using 650 nm as reference using Tecan Infinite M200 plate reader.
Cell Viability Assay. THP-1 cells were plated in 96-well plates (10^5 cells/well) in 100 μL RPMI supplemented with 10% FBS, 100 U/mL penicillin, and 100 μg/mL streptomycin. Compounds were dissolved in DMSO at 1 mM stock solution and were further diluted to 10 μM in the assay medium. 100 μL of this solution was added to the cells to obtain a final compound concentration of 5 μM ([…]). After 18 h incubation, a solution of MTT in assay media (0.5 mg/mL) was added to each well and further incubated for 4-6 hours, followed by addition of cell lysis buffer (15% w/v SDS and 0.12% v/v 12 N HCl aqueous solution), incubation overnight, and then absorbance was measured at 570 nm using 650 nm as reference using Tecan Infinite M200 plate reader.

[5] = compound 5 μM + IFN-α 100 U/mL, 16 hours, two point normalized: compound 1 + IFN-α = 200%, IFN-α = 100%, mean

SMILES	activity at 5 µM [1, 5]	activity at 5 µM [2]	activity in NF-κB and ISRE assays (in words) [3]	MTT % Viability [4]	ISRE activity (in words) [1]	ISRE % Activation [1, 5]	NF-κB % Activation [2]
CCOc1ccc(S(=O)(=O)Nc2ccc(Cl)c(OC)c2)cc1 [Compound 4, N-(4-chloro-3-methoxyphenyl)-4-ethoxybenzenesulfonamide]	99%	126%	complete loss of activity; also recorded: significant loss of activity	83.7%	–	–	–
CCOc1ccc(S(=O)(=O)Nc2ccc(Cl)cc2OC)cc1 [Compound 5, N-(4-chloro-2-methoxyphenyl)-4-ethoxybenzenesulfonamide]	109%	141%	complete loss of activity; also recorded: significant loss of activity	78.3%	–	–	–
CCOc1ccc(S(=O)(=O)Nc2cc(OC)ccc2OC)cc1 [Compound 6, N-(2,5-dimethoxyphenyl)-4-ethoxybenzenesulfonamide]	96%	116%	retained activity	73.1%	–	–	–
CCOc1ccc(S(=O)(=O)Nc2cc(OC)c(Br)cc2OC)cc1 [Compound 7, N-(4-bromo-2,5-dimethoxyphenyl)-4-ethoxybenzenesulfonamide]	235%	176%	retained activity	68.8%	slightly skewed ISRE activity	–	–
CCOc1ccc(S(=O)(=O)Nc2cc(OC)c(Cl)c(OC)c2)cc1 [Compound 8, N-(4-chloro-3,5-dimethoxyphenyl)-4-ethoxybenzenesulfonamide]	218%	179%	complete loss of activity	71.4%	slightly skewed ISRE activity	–	–
COc1cc(NS(=O)(=O)c2ccc(O)cc2)c(OC)cc1Cl [Compound 11, N-(4-chloro-2,5-dimethoxyphenyl)-4-hydroxybenzenesulfonamide]	104%	98%	not tolerated	85.2%	–	–	–
COc1cc(NS(=O)(=O)c2ccc(C(=O)O)cc2)c(OC)cc1Cl [Compound 28, 4-(N-(4-chloro-2,5-dimethoxyphenyl)sulfamoyl)benzoic acid]	–	–	lost activity	98.2%	–	–	–
CCOc1ccc(NS(=O)(=O)c2cc(OC)c(Cl)cc2OC)cc1 [Compound 31, 4-Chloro-N-(4-ethoxyphenyl)-2,5-dimethoxybenzenesulfonamide]	–	–	inactivity	–	–	–	–
C#CCCN(c1cc(OC)c(Cl)cc1OC)S(=O)(=O)c1ccc(OCC)cc1 [Compound 43, N-(but-3-yn-1-yl)-N-(4-chloro-2,5-dimethoxyphenyl)-4-ethoxybenzenesulfonamide]	201%	206%	–	70.1%	–	–	–
C#CCCCN(c1cc(OC)c(Cl)cc1OC)S(=O)(=O)c1ccc(OCC)cc1 [Compound 44, N-(4-chloro-2,5-dimethoxyphenyl)-4-ethoxy-N-(pent-4-yn-1-yl) benzenesulfonamide]	–	–	–	70.7%	–	184%	182%
CCOC(=O)CCCN(c1cc(OC)c(Cl)cc1OC)S(=O)(=O)c1ccc(OCC)cc1 [Compound 50, Ethyl 4-((N-(4-chloro-2,5-dimethoxyphenyl)-4-ethoxyphenyl)sulfonamido)butanoate]	199%	199%	–	80.1%	–	–	–
CCOc1ccc(S(=O)(=O)N(CCCC(=O)O)c2cc(OC)c(Cl)cc2OC)cc1 [Compound 53, 4-((N-(4-chloro-2,5-dimethoxyphenyl)-4-ethoxyphenyl)sulfonamido)butanoic acid]	151%	230%	–	73.4%	–	–	–
CCOc1ccc(S(=O)(=O)Nc2cc(OC)c(N=[N+]=[N-])cc2OC)cc1 [Compound 59, N-(4-azido-2,5-dimethoxyphenyl)-4-ethoxybenzenesulfonamide]	–	–	potent	76.6%	–	–	–
COc1ccc(S(=O)(=O)Nc2cc(OC)c(Cl)cc2OC)cc1N [Compound 60, 3-Amino-N-(4-chloro-2,5-dimethoxyphenyl)-4-methoxybenzenesulfonamide]	–	–	resurgence of activity	77.3%	–	–	–
COc1cc(NS(=O)(=O)c2ccc(OC)c(N=[N+]=[N-])c2)c(OC)cc1Cl [Compound 61, 3-Azido-N-(4-chloro-2,5-dimethoxyphenyl)-4-methoxybenzenesulfonamide]	–	–	inactive	87.2%	–	–	–
